Results reported in patent US6969738B2, “Malic acid diester surfactants” (Air Products and Chemicals, Inc., priority 1999, dated 2005).

Key:
Type in all cases: physicochemical
[1] = Dynamic surface tension of aqueous solutions, maximum bubble pressure method; conditions: for γ(0.1 wt % solution) (1 b/s) / γ(0.1 wt % solution) (6 b/s) / pC20 / limiting γ (0.1 b/s) / limiting γ (1 b/s) / limiting γ (6 b/s) / limiting γ (20 b/s): 25° C.; for pC20: negative logarithm of molar concentration giving 52.1 dyne/cm at 0.1 b/s; for limiting γ (0.1 b/s) / limiting γ (1 b/s) / limiting γ (6 b/s) / limiting γ (20 b/s): water
Text: In the following Examples dynamic surface tension data were obtained for aqueous solutions of various compounds using the maximum bubble pressure method at bubble rates from 0.1 bubbles/second (b/s) to 20 b/s. […] In practical terms, high bubble rates correspond to high printing speeds in lithographic printing, high spray or roller velocities in coating applications, and rapid application rates for agricultural products.
(§1) Solutions of the materials of Examples 1-10 in distilled water were prepared. […] The pC20 value is defined as the negative logarithm of the molar concentration of surfactant required to decrease the surface tension of an aqueous solution to […], that is, 20 dyne/cm below that of pure water when the measurement is performed at 0.1 b/s. This value is a measure of the efficiency of a surfactant. […] In addition, the relative efficiency of surfactants can be obtained by comparing surface tension reduction of solutions containing the same amount of different surfactants. Such data is given for 0.1 wt % solutions of the dialkylmalates at 1.0 and 6.0 bubbles/second (b/s). The solubility limit was determined by intersection of the linear portion of a surface tension/In concentration curve with the limiting surface tension as is described in many textbooks. The limiting surface tensions at 0.1, 1, 6 and 20 b/s represent the lowest surface tensions in water which can be achieved at the given surface creation rates for a given surfactant regardless of the amount of surfactant used and is used to evaluate the effectiveness of a surfactant. These values give information about the relative ability of a surfactant to reduce surface defects under near-equilibrium conditions (0.1 b/s) through very dynamic conditions (20 b/s). Lower surface tensions would allow the elimination of defects upon application of a formulation onto lower energy surfaces.

[2] = Solubility limit in water from surface tension/ln concentration curve; conditions: distilled water, 25° C.
Method: as §1

[3] = Foam test of 0.1 wt % solutions, procedure based upon ASTM D 1173-53; conditions: 0.1 wt % solution
Method: The foaming properties of 0.1 wt % solutions of the dialkylmalate surfactants of this invention were examined using a procedure based upon ASTM D 1173-53. In this test, a 0.1 wt % solution of the surfactant is added from an elevated foam pipette to a foam receiver containing the same solution. The foam height is measured at the completion of the addition (“Initial Foam Height”) and the time required for the foam to dissipate at the air-liquid interface (“Time to 0 Foam”) is recorded. This test provides a comparison between the foaming characteristics of various surfactant solutions. In general, in coatings, inks, adhesives, fountain solutions and agricultural compositions, foam is undesirable because it complicates handling and can lead to coating and print defects, and to inefficient application of agricultural materials.

## CC(C)OC(=O)C[C@H](O)C(=O)OC(C)C [Example 1, Diisopropyl-(S)-(−)-malate]
[1]
  γ(0.1 wt % solution) (1 b/s): 59.2 dyne/cm
  γ(0.1 wt % solution) (6 b/s): 60.1 dyne/cm
  pC20: 1.83
  limiting γ (0.1 b/s): 33.6 Dyne/cm
  limiting γ (1 b/s): 33.8 Dyne/cm
  limiting γ (6 b/s): 34.0 Dyne/cm
[1]; 20 b/s
  limiting γ (20 b/s): 35.3 Dyne/cm
[1]; 20 b/s, listed as diisopropyl-(S)-(−)-malate
  limiting γ (20 b/s): < 34 Dyne/cm
[2]
  solubility limit: 5 Weight %
[3]
  initial foam: 1.3 cm
  time to zero foam: 14 s

## CC(C)CC(C)OC(=O)CC(O)C(=O)OC(C)CC(C)C (racemic) [Example 9, Di(4-methyl-2-pentyl)-DL-malate]
[1]
  γ(0.1 wt % solution) (1 b/s): 46.2 dyne/cm
  γ(0.1 wt % solution) (6 b/s): 56.4 dyne/cm
  pC20: 3.84
  limiting γ (0.1 b/s): 40.8 Dyne/cm
  limiting γ (1 b/s): 50.9 Dyne/cm
  limiting γ (6 b/s): 63.9 Dyne/cm
[1]; 20 b/s
  limiting γ (20 b/s): 69.4 Dyne/cm
[2]
  solubility limit: 0.02 Weight %
[3]
  initial foam: 0 cm
  time to zero foam: 0 s

## CC(C)COC(=O)CC(O)C(=O)OCC(C)C (racemic) [Example 3, Diisobutyl-DL-malate]
[1]
  γ(0.1 wt % solution) (1 b/s): 44.1 dyne/cm
  γ(0.1 wt % solution) (6 b/s): 45.2 dyne/cm
  pC20: 3.08
  limiting γ (0.1 b/s): 33.5 Dyne/cm
  limiting γ (1 b/s): 33.3 Dyne/cm
  limiting γ (6 b/s): 33.4 Dyne/cm
[1]; 20 b/s
  decrease in the limiting surface tension compared to dibutyl-DL-malate: 3.3 dyne/cm
  limiting γ (20 b/s): 35.3 Dyne/cm
[1]; 20 b/s, listed as diisobutyl-DL-malate
  limiting γ (20 b/s): less than 36 Dyne/cm
[2]
  solubility limit: 0.4 Weight %
[3]
  initial foam: 0.6 cm
  time to zero foam: 0.2 s

## CCC(C)OC(=O)CC(O)C(=O)OC(C)CC (racemic) [Example 4, Di-sec-butyl-DL-malate]
[1]
  γ(0.1 wt % solution) (1 b/s): 47.8 dyne/cm
  γ(0.1 wt % solution) (6 b/s): 48.5 dyne/cm
  pC20: 2.77
  limiting γ (0.1 b/s): 36.5 Dyne/cm
  limiting γ (1 b/s): 36.7 Dyne/cm
  limiting γ (6 b/s): 37.3 Dyne/cm
[1]; 20 b/s
  limiting γ (20 b/s): 38.1 Dyne/cm
[2]
  solubility limit: 0.6 Weight %
[3]
  initial foam: 1.0 cm
  time to zero foam: 60 s

## O=C(CC(O)C(=O)OCc1ccccc1)OCc1ccccc1 (racemic) [Example 10, Dibenzyl-DL-malate]
[1]
  γ(0.1 wt % solution) (1 b/s): 61.5 dyne/cm
  γ(0.1 wt % solution) (6 b/s): 65.2 dyne/cm
  pC20: 2.23
  limiting γ (0.1 b/s): 54.0 Dyne/cm
  limiting γ (1 b/s): 57.7 Dyne/cm
  limiting γ (6 b/s): 60.3 Dyne/cm
[1]; 20 b/s
  limiting γ (20 b/s): 70.0 Dyne/cm
[2]
  solubility limit: 0.08 Weight %
[3]
  initial foam: 0 cm
  time to zero foam: 0 s

## CCC(C)COC(=O)CC(O)C(=O)OCC(C)CC (racemic) [Example 7, Di(2-methylbutyl)-DL-malate]
[1]
  γ(0.1 wt % solution) (1 b/s): 38.9 dyne/cm
  γ(0.1 wt % solution) (6 b/s): 41.2 dyne/cm
  pC20: 3.47
  limiting γ (0.1 b/s): 37.8 Dyne/cm
  limiting γ (1 b/s): 38.9 Dyne/cm
  limiting γ (6 b/s): 41.2 Dyne/cm
[1]; 20 b/s
  limiting γ (20 b/s): 49.7 Dyne/cm
[2]
  solubility limit: 0.04 Weight %
[3]
  initial foam: 1.2 cm
  time to zero foam: 0.1 s

## CCCCCOC(=O)CC(O)C(=O)OCCCCC (racemic) [Example 5, Dipentyl-DL-malate]
[1]
  γ(0.1 wt % solution) (1 b/s): 38.2 dyne/cm
  γ(0.1 wt % solution) (6 b/s): 40.5 dyne/cm
  pC20: 3.52
  limiting γ (0.1 b/s): 36.8 Dyne/cm
  limiting γ (1 b/s): 38.2 Dyne/cm
  limiting γ (6 b/s): 40.5 Dyne/cm
[1]; 20 b/s
  limiting γ (20 b/s): 50.1 Dyne/cm
[2]
  solubility limit: 0.03 Weight %
[3]
  initial foam: 0.5 cm
  time to zero foam: 0.2 s

## CC(C)CCOC(=O)CC(O)C(=O)OCCC(C)C (racemic) [Example 6, Diisoamyl-DL-malate]
[1]
  γ(0.1 wt % solution) (1 b/s): 36.8 dyne/cm
  γ(0.1 wt % solution) (6 b/s): 39.5 dyne/cm
  pC20: 3.86
  limiting γ (0.1 b/s): 35.6 Dyne/cm
  limiting γ (1 b/s): 36.8 Dyne/cm
  limiting γ (6 b/s): 39.5 Dyne/cm
[1]; 20 b/s
  limiting γ (20 b/s): 48.0 Dyne/cm
[2]
  solubility limit: 0.04 Weight %
[3]
  initial foam: 0.3 cm
  time to zero foam: 0.3 s

## CCCCCCOC(=O)CC(O)C(=O)OCCCCCC (racemic) [Example 8, Dihexyl-DL-malate]
[1]
  γ(0.1 wt % solution) (1 b/s): 58.8 dyne/cm
  γ(0.1 wt % solution) (6 b/s): 52.0 dyne/cm
  pC20: 3.25
  limiting γ (0.1 b/s): 55.6 Dyne/cm
  limiting γ (1 b/s): 65.2 Dyne/cm
  limiting γ (6 b/s): 69.3 Dyne/cm
[1]; 20 b/s
  limiting γ (20 b/s): 71.2 Dyne/cm
[2]
  solubility limit: 0.005 Weight %
[3]
  initial foam: 0.5 cm
  time to zero foam: 0.1 s

## CCCCOC(=O)CC(O)C(=O)OCCCC (racemic) [Example 2, Dibutyl-DL-malate]
[1]
  γ(0.1 wt % solution) (1 b/s): 43.8 dyne/cm
  γ(0.1 wt % solution) (6 b/s): 44.8 dyne/cm
  pC20: 3.04
  limiting γ (0.1 b/s): 35.8 Dyne/cm
  limiting γ (1 b/s): 36.0 Dyne/cm
  limiting γ (6 b/s): 36.5 Dyne/cm
[1]; 20 b/s
  limiting γ (20 b/s): 38.6 Dyne/cm
[2]
  solubility limit: 0.3 Weight %
[3]
  initial foam: 0.9 cm
  time to zero foam: 20 s
